≈ marks a conversion by molar mass, not a printed value.
How the values were obtained:
Homo sapiens = species: Homo sapiens; test: Selectivity ratio of Ki for human adenosine A1 receptor to Ki for human adenosine A2A receptor
Adenosine receptor A2a [1] = target: T1, Adenosine receptor A2a (Homo sapiens, UniProt P29274); test: Antagonist activity at human adenosine A2A receptor assessed as inhibition of CGS-21680-stimulated cAMP production; type: functional
[2] = Solubility at pH >=2; type: physicochemical
Adenosine receptor A2a [3] = target: T1, Adenosine receptor A2a; test: Displacement of [3H]ZM241385 from human adenosine A2A receptor expressed in HEK293 cells; type: cell-based
Adenosine receptor A1 = target: T2, Adenosine receptor A1 (Homo sapiens, UniProt P30542); test: Displacement of [3H]DPCPX from human adenosine A1 receptor expressed in HEK293 cells; type: cell-based
T2 sequence (P30542 whole entry): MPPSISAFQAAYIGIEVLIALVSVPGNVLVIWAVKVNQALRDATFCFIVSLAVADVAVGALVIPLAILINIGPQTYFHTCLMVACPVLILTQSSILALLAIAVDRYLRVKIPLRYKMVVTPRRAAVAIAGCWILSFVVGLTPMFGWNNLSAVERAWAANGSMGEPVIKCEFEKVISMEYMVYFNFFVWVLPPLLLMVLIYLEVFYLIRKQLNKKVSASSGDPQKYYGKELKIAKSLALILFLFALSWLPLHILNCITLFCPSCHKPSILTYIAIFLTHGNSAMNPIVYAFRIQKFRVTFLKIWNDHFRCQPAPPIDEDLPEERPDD

[4] = Solubility in phosphate buffered saline; type: physicochemical
[5] = Solubility in phosphate buffer at pH 7.2; type: physicochemical

T1 sequence (P29274 whole entry): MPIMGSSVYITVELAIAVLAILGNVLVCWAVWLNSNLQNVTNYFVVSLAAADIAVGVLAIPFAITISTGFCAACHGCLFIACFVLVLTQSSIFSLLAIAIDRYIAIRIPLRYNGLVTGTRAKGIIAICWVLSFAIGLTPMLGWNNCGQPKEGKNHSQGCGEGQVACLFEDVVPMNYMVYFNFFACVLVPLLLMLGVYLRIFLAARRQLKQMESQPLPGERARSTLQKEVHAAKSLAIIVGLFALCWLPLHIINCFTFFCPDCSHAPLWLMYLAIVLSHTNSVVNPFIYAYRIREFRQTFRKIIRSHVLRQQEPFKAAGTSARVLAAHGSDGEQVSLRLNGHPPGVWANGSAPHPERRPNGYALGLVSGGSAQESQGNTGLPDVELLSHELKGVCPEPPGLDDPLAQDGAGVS

Structure (SMILES)	Ratio Ki (Homo sapiens)	solubility [2]	Ki (Adenosine receptor A2a [3])	Ki (Adenosine receptor A1)	solubility [4]	IC50 (Adenosine receptor A2a [1])	solubility [5]
COc1cncc(-c2cc(NC(C)=O)nc(-n3nc(C)cc3C)n2)c1	82	10 µg/mL (≈ 29.6 µM)	–	–	–	85 nM	–
COC[C@@H]1CCCN1c1cc(NC(C)=O)nc(-c2ccc(C)o2)n1	2	–	119 nM	215 nM	–	–	–
CC(=O)Nc1cc(N2CCCC2C)nc(-n2nc(C)cc2C)n1 (centres undefined)	37	–	28 nM	1040 nM	–	–	–
COC[C@H]1CCCN1c1cc(NC(C)=O)nc(-c2ccc(C)o2)n1	4	–	2.7 nM	10.5 nM	–	–	–
CC(=O)Nc1cc(N2CCCCC2)nc(-n2nc(C)cc2C)n1	43	–	78 nM	3360 nM	–	–	–
CC(=O)Nc1cc(N2CCOCC2)nc(-n2nc(C)cc2C)n1	26	–	313 nM	8120 nM	–	–	–
COCCC1CCCCN1c1cc(NC(C)=O)nc(-n2nc(C)cc2C)n1 (single isomer, unassigned)	17	–	275 nM	4690 nM	–	–	–
COC[C@@H]1CCCN1c1cc(NC(C)=O)nc(-c2nccs2)n1	23	–	15 nM	354 nM	–	–	–
CC(=O)Nc1cc(N2CCCC2CO)nc(-n2nc(C)cc2C)n1 (single isomer, unassigned)	59	–	25.8 nM	1530 nM	–	–	–
COC(=O)[C@H]1CCCN1c1cc(NC(C)=O)nc(-n2nc(C)cc2C)n1	14	–	205 nM	2930 nM	–	–	–
CC(=O)Nc1cc(N2CCN(C)CC2)nc(-n2nc(C)cc2C)n1	–	–	1870 nM	> 10000 nM	–	–	–
COC[C@H]1CCCN1c1cc(N)nc(-n2nc(C)cc2C)n1	9.5	–	261 nM	2470 nM	–	–	–
CCN(CC)c1cc(NC(C)=O)nc(-n2nc(C)cc2C)n1	49	–	92 nM	4470 nM	–	–	–
COC[C@H]1C[C@@H](OC)CN1c1cc(NC(C)=O)nc(-n2nc(C)cc2C)n1	27	–	23 nM	620 nM	–	–	–
COC[C@H]1C[C@H](OC)CN1c1cc(NC(C)=O)nc(-n2nc(C)cc2C)n1	47	–	7.5 nM	352 nM	–	–	–
CC(=O)Nc1cc(N2CCCC2=O)nc(-n2nc(C)cc2C)n1	76	–	12 nM	913 nM	–	1000 nM	–
CC(=O)Nc1cc(N2CCc3ccccc3C2)nc(-n2nc(C)cc2C)n1	77	–	4.2 nM	323 nM	–	–	10 µg/mL (≈ 27.6 µM)
COC[C@@H]1CCC(C)N1c1cc(NC(C)=O)nc(-n2nc(C)cc2C)n1 (some centres undefined)	35	–	47 nM	1640 nM	–	–	–
CC(=O)Nc1cc(-c2ccccc2O)nc(-n2nc(C)cc2C)n1	–	–	1.9 nM	–	–	–	–
COC[C@H]1CCCN1c1cc(NC(C)=O)nc(-c2nccs2)n1	7.5	–	20 nM	150 nM	–	–	–
COC(=O)[C@@H]1CCCN1c1cc(NC(C)=O)nc(-n2nc(C)cc2C)n1	–	–	> 10000 nM	–	–	–	–
CC(=O)Nc1cc(N2CCCC2)nc(-n2nc(C)cc2C)n1	45	–	110 nM	4950 nM	–	–	–

Now from value to compound, other results behind:

Ratio Ki (Homo sapiens)	solubility [2]	Ki (Adenosine receptor A2a [3])	Ki (Adenosine receptor A1)	solubility [4]	Structure (SMILES)	IC50 (Adenosine receptor A2a [1])	solubility [5]
28	–	439 nM	12100 nM	–	CC(=O)Nc1cc(N2CCC[C@H]2COc2ccccn2)nc(-n2nc(C)cc2C)n1	–	–
1.5	–	40 nM	64 nM	–	CC(=O)Nc1cc(N2CCC[C@@H]2COc2ccccn2)nc(-n2nc(C)cc2C)n1	–	–
35	–	9 nM	320 nM	–	COCC1CCCN1c1cc(NC(C)=O)nc(-n2nc(C)cc2C)n1 (centres undefined)	–	–
14	–	324 nM	4470 nM	–	COC[C@@H]1CCCN1c1cc(NC(C)=O)nc(-n2nc(C)cc2C)n1	–	–
–	–	–	–	> 6700 µg/mL	COC[C@H]1CCCN1c1cc(NC(C)=O)nc(-n2nc(C)cc2C)n1.Cl	–	–
1.5	–	46 nM	69 nM	–	COC[C@H]1CCCN1c1cc(NC(C)=O)nc(-c2ccccn2)n1	–	–
11	–	5.9 nM	64 nM	–	CCC(=O)Nc1cc(N2CCC[C@@H]2COC)nc(-n2nc(C)cc2C)n1	–	–
29	–	43 nM	1280 nM	–	COC[C@H]1CCCN1c1cc(NC(=O)NC(C)C)nc(-n2nc(C)cc2C)n1	–	–
2	–	50 nM	92 nM	–	COC[C@H]1CCCN1c1cc(NC(=O)CC(C)C)nc(-n2nc(C)cc2C)n1	–	–
50	–	19 nM	960 nM	–	COC[C@H]1CCCN1c1cc(NC(=O)OC)nc(-n2nc(C)cc2C)n1	–	–
4.3	–	47 nM	203 nM	–	COC[C@H]1CCCN1c1cc(NC(C)=O)nc(-c2cccs2)n1	–	–
34	–	–	–	–	COC[C@H]1CCCN1c1cc(NC(C)=O)nc(-n2nc(C)cc2C)n1	–	–
9	–	455 nM	4190 nM	–	CCOCC1CCCN1c1cc(NC(C)=O)nc(-n2nc(C)cc2C)n1 (centres undefined)	–	–
2.5	–	50 nM	125 nM	–	COC[C@@H]1CCCN1c1cc(NC(C)=O)nc(-c2ccccn2)n1	–	–
12	–	27 nM	325 nM	–	COC[C@@H]1CCCN1c1cc(NC(C)=O)nc(-c2cccs2)n1	–	–
